The values below come from patent US20230167073A1 (Teijin Pharma Limited, priority 2020, published 2023).

The structures appear in SMILES notation.

The test addresses T1, Human TRPC6 (Homo sapiens, UniProt Q9Y210).
T1 construct: expressed in transfected cells
T1 sequence (Q9Y210 1-931): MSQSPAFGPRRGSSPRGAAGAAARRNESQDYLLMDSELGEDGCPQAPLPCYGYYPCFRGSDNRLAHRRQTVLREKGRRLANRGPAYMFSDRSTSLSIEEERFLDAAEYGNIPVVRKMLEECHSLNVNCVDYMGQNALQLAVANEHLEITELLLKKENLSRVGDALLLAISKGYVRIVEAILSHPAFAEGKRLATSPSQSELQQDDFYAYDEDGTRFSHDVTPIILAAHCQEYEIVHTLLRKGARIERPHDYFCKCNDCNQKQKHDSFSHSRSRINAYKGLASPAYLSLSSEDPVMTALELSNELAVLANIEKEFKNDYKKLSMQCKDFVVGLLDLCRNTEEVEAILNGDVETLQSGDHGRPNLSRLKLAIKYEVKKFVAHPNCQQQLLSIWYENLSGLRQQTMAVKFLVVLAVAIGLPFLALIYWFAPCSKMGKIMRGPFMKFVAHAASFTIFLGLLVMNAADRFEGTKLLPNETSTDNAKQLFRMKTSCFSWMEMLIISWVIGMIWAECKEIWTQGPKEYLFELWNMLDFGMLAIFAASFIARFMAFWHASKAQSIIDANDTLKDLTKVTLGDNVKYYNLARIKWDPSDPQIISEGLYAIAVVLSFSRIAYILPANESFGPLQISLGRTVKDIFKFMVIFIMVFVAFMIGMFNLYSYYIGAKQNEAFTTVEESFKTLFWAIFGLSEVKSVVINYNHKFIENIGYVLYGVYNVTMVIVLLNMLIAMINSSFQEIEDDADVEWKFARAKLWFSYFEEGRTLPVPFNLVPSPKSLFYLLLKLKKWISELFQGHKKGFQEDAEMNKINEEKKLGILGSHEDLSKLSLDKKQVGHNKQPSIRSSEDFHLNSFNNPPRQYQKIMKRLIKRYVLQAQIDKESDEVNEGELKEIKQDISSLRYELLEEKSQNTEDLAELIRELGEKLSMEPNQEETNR
The test is described as follows: Evaluation of TRPC6 channel inhibitory activity (2), HEK293 cells with stably introduced human TRPC6, OAG stimulation, FLIPR tetra (Compound Nos. 1293 to 1405). The class given is cell-based. Conditions: HEK293 cells with stably introduced human TRPC6, OAG 50 μM/0.5% DMSO, read-out: Inhibitory activity (pIC50 class) (converted). On the procedure:
Evaluation of TRPC6 Channel Inhibitory Activity (2) (Compound Nos. 1293 to 1405)
The activity of the TRPC6 inhibitor was measured by stimulating HEK293 cells, in which human TRPC6 was stably introduced, with OAG (1-Oleoyl-2-acetyl-sn-glycerol, Miliipore Sigma, 06754), using the FLIPR tetra system. The cells were proliferated in a humid environment at 37° C. 5% CO2 using a growth medium (DMEM (Dulbecco's Modified Eagle's Medium) high glucose containing 10% fetal bovine serum, 1×PSGlu (penicillin-streptomycin glutamine), 1×NEAA (Non-essential amino acid), sodium pyruvate and 200 μg/mL hyglomycin. For cell subculture, the cells were proliferated to 70-90% confluence, and gently washed twice with PBS (phosphate-buffered saline) free of calcium and magnesium after removing the medium. Then, the cells were incubated at 37° C. for 5 minutes after adding trypsin (3 mL), peeled off by tapping the flask at the base of the hand, 7 mL of growth medium was added to inactivate trypsin, and then the cells were resuspended. Usually, the cells were separated every 2-3 days to become a cell density of ⅕. The day before evaluation, the cells were seeded in a poly-D-lysine (PDL) coated 384-well plate using a multi-channel pipette or multidrop at a cell density of 1.0-1.5×10^4 cells/25 μL/well. After culturing overnight in a PDL-coated 384 Blackwell plate, a fluorescent dye buffer was added first to the cells and the cells were cultured at room temperature for 90-120 minutes. For preparing 10 mL of fluorescent dye buffer, 9 mL of assay buffer, 1 mL of 10×PBX signal enhancer, and 10 μL of calcium indicator were mixed. Cells treated with the compounds of each level 25 minutes before the stimulation with OAG of TRPC6 agonist were incubated. OAG solution was prepared by adding OAG to assay buffer (Ca ringer solution base: 10 mM HEPES (4-(2-hydroxyethyl)-1-piperazine-ethanesulfonic acid), 4 mM MgCl2, 120 mM NaCl, 5 mM KCl, pH=7.2 (25° C.)+0.1% BSA+2 mM CaCl2)) to give an OAG concentration of 0.2 mM/2% DMSO. The final concentration of OAG added to the cells is 50 μM/0.5% DMSO. A volume of 12.5 μL of OAG solution was added, and activation of TRPC6 channel was measured using the FLIPR tetra system assaying the change in intracellular calcium level as an index. The 180 seconds imaging frame was defined as the background signal, and the subtraction of the background signal from the raw data was used as the fluorescence peak signal. Each fluorescence peak signal is standardized using an OAG-induced signal and buffer-induced signal as 100% and 0%, respectively. The inhibition rate obtained by plotting the peak signal after the addition of the compounds of each level was analyzed by a four-parameter logistic regression to quantify the inhibition rate in the logarithm of the inverse of the effective concentration which gives a 50% inhibition rate (pIC50). The intensity was expressed by the above-mentioned symbols (+, ++, +++).
Turning to `Cc1cc(Oc2cc(Cl)ccc2-c2ccc(CN)cn2)cc(N2CCOCC2)n1` [compound 1321, [6-[4-chloro-2-(2-methyl-6-morpholin-4-ylpyridin-4-yl)oxyphenyl]pyridin-3-yl]methanamine], the IC50 is 10 to 1000 nM.
Next, `Cc1nc(Oc2cc(Cl)ccc2-c2ncc(CCN)cn2)c(C)c(N2CCOCC2)n1` [compound 1405, 2-[2-[4-chloro-2-(2,5-dimethyl-6-morpholin-4-ylpyrimidin-4-yl)oxyphenyl]pyrimidin-5-yl]ethanamine]: above 1000 nM; `Cn1nc(-c2ccccn2)cc1Oc1cc(Cl)ccc1-c1ccc([C@H](N)C(F)(F)F)cn1` [compound 1379, (1S)-1-[6-[4-chloro-2-(2-methyl-5-pyridin-2-ylpyrazol-3-yl)oxyphenyl]pyridin-3-yl]-2,2,2-trifluoroethanamine]: above 1000 nM; `Cn1nc(C2CCOCC2)cc1Oc1cc(C#N)ccc1-c1ncc([C@@H](F)CN)cn1` [compound 1313, 4-[5-[(1R)-2-amino-1-fluoroethyl]pyrimidin-2-yl]-3-[2-methyl-5-(oxan-4-yl)pyrazol-3-yl]oxybenzonitrile]: 10 to 1000 nM.
Turning to `Cc1cc(Oc2cc(C#N)ccc2-c2ccc([C@@H](F)CN)cn2)cc(N2CCOCC2)n1` [compound 1299, 4-[5-[(1R)-2-amino-1-fluoroethyl]pyridin-2-yl]-3-(2-methyl-6-morpholin-4-ylpyridin-4-yl)oxybenzonitrile], the IC50 was below 10 nM.
Next, `Cn1nc(C2CC2)cc1Oc1cc(Cl)ccc1-c1ccc(CN)cn1` [compound 1346, [6-[4-chloro-2-(5-cyclopropyl-2-methylpyrazol-3-yl)oxyphenyl]pyridin-3-yl]methanamine]: below 10 nM.
As for `Cn1nc(-c2ccccn2)cc1Oc1cc(Cl)ccc1-c1ccc([C@@H](O)CN)cn1` [compound 1401, (1R)-2-amino-1-[6-[4-chloro-2-(2-methyl-5-pyridin-2-ylpyrazol-3-yl)oxyphenyl]pyridin-3-yl]ethanol], the IC50 is 10 to 1000 nM.
Next, `Cc1nc(Oc2cc(Cl)ccc2-c2ncc([C@H](O)CN)cn2)cc(N2CCOCC2)n1` [compound 1377, (1S)-2-amino-1-[2-[4-chloro-2-(2-methyl-6-morpholin-4-ylpyrimidin-4-yl)oxyphenyl]pyrimidin-5-yl]ethanol]: 10 to 1000 nM; `Cn1nc(C2CCOCC2)cc1Oc1cc(Cl)ccc1-c1ncc([C@H](F)CN)cn1` [compound 1359, (2S)-2-[2-[4-chloro-2-[2-methyl-5-(oxan-4-yl)pyrazol-3-yl]oxyphenyl]pyrimidin-5-yl]-2-fluoroethanamine]: 10 to 1000 nM.
To `Cc1cc(Oc2cc(Cl)ccc2-c2ncc([C@@H](F)CN)cn2)cc(N2CCOCC2)n1` [compound 1336, (2R)-2-[2-[4-chloro-2-(2-methyl-6-morpholin-4-ylpyridin-4-yl)oxyphenyl]pyrimidin-5-yl]-2-fluoroethanamine] belongs 10 to 1000 nM; to `COc1nc(-c2ccc(C#N)cc2Oc2cc(-c3ccccn3)nn2C)ccc1CN` [compound 1310, 4-[5-(aminomethyl)-6-methoxypyridin-2-yl]-3-(2-methyl-5-pyridin-2-ylpyrazol-3-yl)oxybenzonitrile], 10 to 1000 nM; to `Cn1nc([C@@H]2CCOC2)cc1Oc1cc(Cl)ccc1-c1ncc(CN)cn1` [compound 1356, [2-[4-chloro-2-[2-methyl-5-[(3S)-oxolan-3-yl]pyrazol-3-yl]oxyphenyl]pyrimidin-5-yl]methanamine], 10 to 1000 nM.
Next, `Cn1nc(C2CCOCC2)cc1Oc1cc(Cl)ccc1-c1ncc(CN)cn1` [compound 1362, [2-[4-chloro-2-[2-methyl-5-(oxan-4-yl)pyrazol-3-yl]oxyphenyl]pyrimidin-5-yl]methanamine]: 10 to 1000 nM.
On to `Cn1nc([C@@H]2CCOC2)cc1Oc1cc(C#N)ccc1-c1ncc(CN)cn1` [compound 1308, 4-[5-(aminomethyl)pyrimidin-2-yl]-3-[2-methyl-5-[(3S)-oxolan-3-yl]pyrazol-3-yl]oxybenzonitrile], for which the IC50 is 10 to 1000 nM.
For the compound `Cn1nc(-c2ccccn2)cc1Oc1cc(C#N)ccc1-c1ccc(CN)nn1` [compound 1326, 4-[6-(aminomethyl)pyridazin-3-yl]-3-(2-methyl-5-pyridin-2-ylpyrazol-3-yl)oxybenzonitrile], the IC50 was 10 to 1000 nM.
For the compound `Cn1nc(-c2ccccn2)cc1Oc1cc(Cl)ccc1-c1ncc(CCN)cn1` [compound 1322, 2-[2-[4-chloro-2-(2-methyl-5-pyridin-2-ylpyrazol-3-yl)oxyphenyl]pyrimidin-5-yl]ethanamine], the IC50 is below 10 nM.
Turning to `CNc1ccc(-c2ccc(C#N)cc2Oc2cc(C)nc(N3CCOCC3)c2)nc1` [compound 1307, 4-[5-(methylamino)pyridin-2-yl]-3-(2-methyl-6-morpholin-4-ylpyridin-4-yl)oxybenzonitrile], the IC50 was above 1000 nM.
Next, `Cn1nc(C2CC2)cc1Oc1cc(Cl)ccc1-c1ncc(CN)cn1` [compound 1355, [2-[4-chloro-2-(5-cyclopropyl-2-methylpyrazol-3-yl)oxyphenyl]pyrimidin-5-yl]methanamine]: 10 to 1000 nM; `Cn1nc(C2CCOCC2)cc1Oc1cc(C#N)ccc1-c1ccc(C(F)(F)CN)cn1` [compound 1400, 4-[5-(2-amino-1,1-difluoroethyl)pyridin-2-yl]-3-[2-methyl-5-(oxan-4-yl)pyrazol-3-yl]oxybenzonitrile]: 10 to 1000 nM.
`Cn1nc(-c2ccccn2)cc1Oc1cc(Cl)ccc1-c1ncc([C@@H](O)CN)cn1` [compound 1357, (1R)-2-amino-1-[2-[4-chloro-2-(2-methyl-5-pyridin-2-ylpyrazol-3-yl)oxyphenyl]pyrimidin-5-yl]ethanol]: the IC50 is below 10 nM.
Next, `COc1nc(-c2ccc(C#N)cc2Oc2cc(-c3ccccn3)nn2C)ncc1[C@@H](O)CN` [compound 1327, 4-[5-[(1R)-2-amino-1-hydroxyethyl]-4-methoxypyrimidin-2-yl]-3-(2-methyl-5-pyridin-2-ylpyrazol-3-yl)oxybenzonitrile]: 10 to 1000 nM.
As to `Cc1cc(Oc2nc(Cl)ccc2-c2ccc(CCN)cc2)cc(N2CCOCC2)n1` [compound 1329, 2-[4-[6-chloro-2-(2-methyl-6-morpholin-4-ylpyridin-4-yl)oxypyridin-3-yl]phenyl]ethanamine], the IC50 is above 1000 nM.
On to `Cn1nc(-c2ccccn2)cc1Oc1cc(F)ccc1-c1ncc([C@@H](F)CN)cn1` [compound 1342, (2R)-2-fluoro-2-[2-[4-fluoro-2-(2-methyl-5-pyridin-2-ylpyrazol-3-yl)oxyphenyl]pyrimidin-5-yl]ethanamine], for which the IC50 was 10 to 1000 nM.
